As usually defined, the solubility is the dissolved amount per volume that the medium holds. Low readings indicate little dissolved substance, high ones much dissolved substance.

The structures appear in SMILES notation. Converted amounts (≈) assume the structure as drawn.

The format of data set [1] is physicochemical. As to conditions: 1:1 cholecalciferol:HPBCD; calculated with theoretic S0.
Another data set in a line: physchem. As to conditions: water, thermodynamic from solid.
The conditions of data set [2]: HPBCD 0 mM (control, D.I. H2O), S0; ref Hamilton 2015; cited from earlier work.

Consider `C=C1CC[C@H](O)C/C1=C/C=C1\CCC[C@]2(C)[C@@H]([C@H](C)CCCC(C)C)CC[C@@H]12` [cholecalciferol], for which the “stability constant K1:1” value in data set [1] was 71900 mM⁻¹. In “physchem”, this compound registered a solubility at 3 days of 1.6 µM (≈ 0.615 µg/mL). Besides, in data set [2], the “Saturated concentration of vitamin D3 in HPBCD solution (S)” value was 3.38×10^−8 (S0) ([Hamilton 2015]) mM. Further, the “Solubility increase ratio (S/S0)” value in “Phase solubility study” (HPBCD 0 mM (control, D.I. H2O)) is recorded as 1; in “Phase solubility study” (HPBCD 10 mM), 5.92×10^5; in “Phase solubility study” (HPBCD 40 mM), 1.42×10^7; in “Phase solubility study” (HPBCD 50 mM) it was 2.29×10^7; in “Phase solubility study” (HPBCD 70 mM) it was 4.56×10^7; in the data set “Phase solubility study” (HPBCD 100 mM), 9.30×10^7. For the same compound, the “Solubility increase ratio (S/S0)” value in the data set “Phase solubility study” (HPBCD 120 mM) is listed as 1.11×10^8; in the data set “Phase solubility study” (HPBCD 150 mM), 1.90×10^8; in “Phase solubility study” (HPBCD 170 mM), 2.31×10^8; in the data set “Phase solubility study” (HPBCD 200 mM), 3.29×10^8. The solubility increase ratio result in the data set “Phase solubility study” (different HPBCD molarities (Table 1)) is on record as “enhanced by five or more orders of magnitude”.

Source of the values: article PMC9233054 (Pharmaceutical development and technology, 2022).
